According to patent US20250205344A1, “2,4-DIOXOTETRAHYDROPYRIMIDINYL DERATIVES AS DEGRONS IN PROTACS” (GLAXOSMITHKLINE INTELLECTUAL PROPERTY DEVELOPMENT LIMITED, priority 2022, published 2025):
Counter-ions that a name gives are not always drawn.

biological target: T1, Androgen Receptor (Homo sapiens, UniProt P10275, T878A); assay: Androgen Receptor Degradation Assay (Nano-Glo HiBiT); format: cell-based; details: LNCaP, 18 h, HiBiT-tagged AR in human LnCaP cells, read-out: mean asymptote max
T1 construct: the AR gene was modified, using CRISPR/Cas9 editing, so the expressed AR protein included an 11 amino acid HiBiT tag; endogenous in cells; host or cells: clonal LnCaP-derived line, AR gene edited by CRISPR/Cas9
Method in brief: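 LnCaP cells with CRISPR-knocked-in N-terminal HiBiT-tagged AR (10,000/well) treated 18 h at 37 °C with PROTACs over 11 threefold concentrations; lytic HiBiT luminescence normalised to DMSO (0%) and cell-free (100%) controls. Relative DC50 = 4-parameter fit inflection; absolute DC50 = 50% degradation interpolation; Dmax = maximum observed degradation.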

T1 sequence (P10275 whole entry T878A): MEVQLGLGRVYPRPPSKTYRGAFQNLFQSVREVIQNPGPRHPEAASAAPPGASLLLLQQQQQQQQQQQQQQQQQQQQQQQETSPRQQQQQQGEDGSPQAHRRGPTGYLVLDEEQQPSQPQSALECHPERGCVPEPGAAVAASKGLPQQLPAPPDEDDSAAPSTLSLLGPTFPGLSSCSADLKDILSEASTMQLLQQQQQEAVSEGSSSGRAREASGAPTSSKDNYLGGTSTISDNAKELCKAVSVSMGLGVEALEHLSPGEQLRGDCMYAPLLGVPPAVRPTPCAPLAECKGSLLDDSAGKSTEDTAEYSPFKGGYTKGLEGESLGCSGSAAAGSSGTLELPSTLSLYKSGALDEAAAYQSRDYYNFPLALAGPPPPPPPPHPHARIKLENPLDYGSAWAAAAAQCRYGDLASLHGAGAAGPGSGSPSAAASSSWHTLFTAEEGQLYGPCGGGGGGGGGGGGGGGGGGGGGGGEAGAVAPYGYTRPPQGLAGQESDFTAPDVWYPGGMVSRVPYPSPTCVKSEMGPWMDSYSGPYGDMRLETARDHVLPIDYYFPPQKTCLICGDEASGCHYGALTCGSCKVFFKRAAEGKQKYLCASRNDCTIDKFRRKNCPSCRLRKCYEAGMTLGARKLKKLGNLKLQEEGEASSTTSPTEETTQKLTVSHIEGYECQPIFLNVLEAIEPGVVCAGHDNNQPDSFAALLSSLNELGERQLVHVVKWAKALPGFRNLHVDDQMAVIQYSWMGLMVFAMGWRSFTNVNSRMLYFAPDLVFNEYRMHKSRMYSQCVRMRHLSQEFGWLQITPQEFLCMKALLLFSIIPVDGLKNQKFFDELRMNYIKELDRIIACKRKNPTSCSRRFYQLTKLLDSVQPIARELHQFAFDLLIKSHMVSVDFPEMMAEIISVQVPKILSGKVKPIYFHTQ
T1 sequence (Q96SW2 whole entry partner): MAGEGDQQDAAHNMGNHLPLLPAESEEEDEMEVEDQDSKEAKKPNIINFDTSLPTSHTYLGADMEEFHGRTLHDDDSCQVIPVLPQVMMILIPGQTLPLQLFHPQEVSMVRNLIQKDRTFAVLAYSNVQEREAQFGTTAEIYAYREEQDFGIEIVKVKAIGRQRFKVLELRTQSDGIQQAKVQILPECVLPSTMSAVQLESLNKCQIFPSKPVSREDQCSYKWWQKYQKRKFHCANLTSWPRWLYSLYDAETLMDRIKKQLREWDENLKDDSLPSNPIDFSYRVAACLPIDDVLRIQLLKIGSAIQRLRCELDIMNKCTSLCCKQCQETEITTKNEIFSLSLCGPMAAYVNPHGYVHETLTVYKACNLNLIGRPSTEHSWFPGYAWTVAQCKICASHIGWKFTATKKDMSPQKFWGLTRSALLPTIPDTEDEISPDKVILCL
T1 sequence (Q16531 whole entry partner): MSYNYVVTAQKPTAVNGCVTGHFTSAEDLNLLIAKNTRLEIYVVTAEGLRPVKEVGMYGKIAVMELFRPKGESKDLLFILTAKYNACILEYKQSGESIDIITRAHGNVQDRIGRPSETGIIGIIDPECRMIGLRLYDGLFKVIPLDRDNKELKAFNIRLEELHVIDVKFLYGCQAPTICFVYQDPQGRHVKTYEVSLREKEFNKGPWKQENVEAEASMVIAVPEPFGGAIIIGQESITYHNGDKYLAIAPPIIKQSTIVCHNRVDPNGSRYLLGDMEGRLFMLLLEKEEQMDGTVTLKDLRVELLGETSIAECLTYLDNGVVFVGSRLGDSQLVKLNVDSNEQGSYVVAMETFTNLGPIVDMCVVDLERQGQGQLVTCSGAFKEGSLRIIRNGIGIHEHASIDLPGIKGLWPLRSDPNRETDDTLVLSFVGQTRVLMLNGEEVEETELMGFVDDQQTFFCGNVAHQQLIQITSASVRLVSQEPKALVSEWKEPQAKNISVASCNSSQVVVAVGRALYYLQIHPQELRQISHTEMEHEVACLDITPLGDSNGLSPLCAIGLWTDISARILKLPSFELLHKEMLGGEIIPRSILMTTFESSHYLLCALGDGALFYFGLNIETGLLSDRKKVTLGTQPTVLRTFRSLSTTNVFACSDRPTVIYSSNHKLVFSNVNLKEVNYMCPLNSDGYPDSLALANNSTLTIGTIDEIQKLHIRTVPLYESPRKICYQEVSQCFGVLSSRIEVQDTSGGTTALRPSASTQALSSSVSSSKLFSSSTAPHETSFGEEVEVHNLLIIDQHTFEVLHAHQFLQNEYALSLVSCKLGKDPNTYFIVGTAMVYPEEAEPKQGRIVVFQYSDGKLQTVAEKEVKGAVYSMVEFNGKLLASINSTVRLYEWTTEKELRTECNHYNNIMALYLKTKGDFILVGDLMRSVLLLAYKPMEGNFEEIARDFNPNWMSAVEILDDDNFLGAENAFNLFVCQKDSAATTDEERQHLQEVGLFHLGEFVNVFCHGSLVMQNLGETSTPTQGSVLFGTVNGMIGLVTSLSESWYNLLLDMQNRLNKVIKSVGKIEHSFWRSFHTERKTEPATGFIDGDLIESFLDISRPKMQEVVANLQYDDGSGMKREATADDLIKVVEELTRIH

Compound | Dmax
CC(C)n1ccc2c(N3CCC(=O)NC3=O)cc(C(=O)NCCOCCN3CCN(c4ccc(C(=O)N[C@H]5CC[C@H](Oc6ccc(C#N)c(Cl)c6)CC5)nn4)CC3)cc21 [EAR76, N-(2-(2-(4-(6-(((1r,4r)-4-(3-Chloro-4-cyanophenoxy)cyclohexyl)carbamoyl)pyridazin-3-yl)piperazin-1-yl)ethoxy)ethyl)-4-(2,4-dioxotetrahydropyrimidin-1(2H)-yl)-1-isopropyl-1H-indole-6-carboxamide] | ≥ 50%
N#Cc1ccc(O[C@H]2CC[C@H](NC(=O)c3ccc(N4CCC(CN5CCC(c6ncc7c(N8CCC(=O)NC8=O)cccn67)CC5)CC4)nn3)CC2)cc1Cl [EAR177, N-((1r,4r)-4-(3-Chloro-4-cyanophenoxy)cyclohexyl)-6-(4-((4-(8-(2,4-dioxotetrahydropyrimidin-1(2H)-yl)imidazo[1,5-a]pyridin-3-yl)piperidin-1-yl)methyl)piperidin-1-yl)pyridazine-3-carboxamide] | ≥ 50%
CC1(CN2CCC(n3ncc4c(N5CCC(=O)NC5=O)cccc43)CC2)CCN(c2ccc(C(=O)N[C@H]3CC[C@H](Oc4ccc(C#N)c(Cl)c4)CC3)nn2)C1 (some centres unmarked) [EAR241, N-((1r,4r)-4-(3-chloro-4-cyanophenoxy)cyclohexyl)-6-(3-((4-(4-(2,4-dioxotetrahydropyrimidin-1(2H)-yl)-1H-indazol-1-yl)piperidin-1-yl)methyl)-3-methylpyrrolidin-1-yl)pyridazine-3-carboxamide] | ≥ 50%
N#Cc1ccc(O[C@H]2CC[C@H](NC(=O)c3ccc(N4CCC(CN5CCC(n6ncc7c(N8CCC(=O)NC8=O)nccc76)CC5)CC4)cc3)CC2)cc1Cl [EAR199, N-((1r,4r)-4-(3-Chloro-4-cyanophenoxy)cyclohexyl)-4-(4-((4-(4-(2,4-dioxotetrahydropyrimidin-1(2H)-yl)-1H-pyrazolo[4,3-c]pyridin-1-yl)piperidin-1-yl)methyl)piperidin-1-yl)benzamide] | ≥ 50%

Results, then the molecule that gave them:

Dmax | Compound
≥ 50% | N#Cc1ccc(O[C@H]2CC[C@H](NC(=O)c3ccc(N4CCC(CN5CCC(n6ccc7c(N8CCC(=O)NC8=O)nc(Cl)nc76)CC5)CC4)nn3)CC2)cc1Cl [EAR175, 6-(4-((4-(2-Chloro-4-(2,4-dioxotetrahydropyrimidin-1(2H)-yl)-7H-pyrrolo[2,3-d]pyrimidin-7-yl)piperidin-1-yl)methyl)piperidin-1-yl)-N-((1r,4r)-4-(3-chloro-4-cyanophenoxy)cyclohexyl)pyridazine-3-carboxamide]
≥ 50% | N#Cc1ccc(O[C@H]2CC[C@H](NC(=O)c3ccc(N4CCC(CN5CCC(n6ncc7c(N8CCC(=O)NC8=O)cc(Cl)cc76)CC5)CC4)nn3)CC2)cc1Cl [EAR34, 6-(4-((4-(6-Chloro-4-(2,4-dioxotetrahydropyrimidin-1(2H)-yl)-1H-indazol-1-yl)piperidin-1-yl)methyl)piperidin-1-yl)-N-((1r,4r)-4-(3-chloro-4-cyanophenoxy)cyclohexyl)pyridazine-3-carboxamide hydrochloride]
≥ 50% | N#Cc1ccc(O[C@H]2CC[C@H](NC(=O)c3cnc(N4CCC(CN5CCC(n6ccc7c(N8CCC(=O)NC8=O)cc(F)cc76)CC5)CC4)cn3)CC2)cc1Cl [EAR202, N-((1r,4r)-4-(3-Chloro-4-cyanophenoxy)cyclohexyl)-5-(4-((4-(4-(2,4-dioxotetrahydropyrimidin-1(2H)-yl)-6-fluoro-1H-indol-1-yl)piperidin-1-yl)methyl)piperidin-1-yl)pyrazine-2-carboxamide hydrochloride]
≥ 50% | N#Cc1ccc(O[C@H]2CC[C@H](NC(=O)c3ccc(N4CCC(CN5CCC(n6ccc7c(N8CCC(=O)NC8=O)cc(F)cc76)CC5)CC4)nn3)CC2)cc1Cl [EAR31, N-((1r,4r)-4-(3-Chloro-4-cyanophenoxy)cyclohexyl)-6-(4-((4-(4-(2,4-dioxotetrahydropyrimidin-1(2H)-yl)-6-fluoro-1H-indol-1-yl)piperidin-1-yl)methyl)piperidin-1-yl)pyridazine-3-carboxamide hydrochloride]
